According to the supplement of paper PMC10307832:

What was measured:
Assay in all cases: relative viability (nuclei count vs DMSO), 5 days (fraction); higher = more cells survive
[1] = compound: NCC(=O)Nc1ccc(-n2nc(C(F)(F)F)cc2-c2ccc3c(ccc4ccccc43)c2)cc1 + Cc1cc(Nc2cc(N3CCN(C)CC3)nc(Sc3ccc(NC(=O)C4CC4)cc3)n2)n[nH]1 [Tozasertib] (partner 0.1 µM)
Summary of the method: (§1)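 Medians of duplicate plates are given as relative viability. That measure is the nuclei count in treated wells divided by the count in vehicle wells. Counts were taken on 4× images of lung cancer cell lines in 1536-well plates, 5 days after pin-tool dosing the day after seeding with one drug alone or a fixed anchor-drug dose plus five library-drug doses (not always all listed) in √10 steps.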

[2] = compound: NCC(=O)Nc1ccc(-n2nc(C(F)(F)F)cc2-c2ccc3c(ccc4ccccc43)c2)cc1 + COc1cc2c(Oc3ccc(NC(=O)C4(C(=O)Nc5ccc(F)cc5)CC4)cc3F)ccnc2cc1OCCCN1CCOCC1 [Foretinib] (partner 0.25 µM)
Summary of the method: as §1

[3] = compound: C1CSC2=C(C(=O)N1)SC3=C2C=C(C=C3)O [kb NB 142-70] + Nc1nc2[nH]cc(CCc3ccc(C(=O)N[C@@H](CCC(=O)O)C(=O)O)cc3)c2c(=O)[nH]1 [Pemetrexed] (partner 0.2 µM)
Summary of the method: as §1

[4] = compound: NCC(=O)Nc1ccc(-n2nc(C(F)(F)F)cc2-c2ccc3c(ccc4ccccc43)c2)cc1 + Nc1nc2[nH]cc(CCc3ccc(C(=O)N[C@@H](CCC(=O)O)C(=O)O)cc3)c2c(=O)[nH]1 [Pemetrexed] (partner 0.2 µM)
Summary of the method: as §1

Cell Line | relative viability ([1]; first compound 0.02 µM) | relative viability ([1]; first compound 0.06325 µM) | relative viability ([1]; first compound 0.2 µM) | relative viability ([1]; first compound 0.6325 µM) | relative viability ([1]; first compound 2 µM) | relative viability ([2]; first compound 0.02 µM) | relative viability ([2]; first compound 0.06325 µM) | relative viability ([2]; first compound 0.2 µM) | relative viability ([2]; first compound 0.6325 µM) | relative viability ([2]; first compound 2 µM) | relative viability ([3]; first compound 0.1 µM) | relative viability ([3]; first compound 1 µM) | relative viability ([3]; first compound 3.162 µM) | relative viability ([4]; first compound 0.02 µM) | relative viability ([4]; first compound 0.06325 µM) | relative viability ([4]; first compound 0.2 µM) | relative viability ([4]; first compound 0.6325 µM) | relative viability ([4]; first compound 2 µM)
NCI-H650 | 0.691 | 0.754 | 0.761 | 0.676 | 0.631 | 1.04 | 1.07 | 1.02 | 1.01 | 1.09 | 1.07 | 1.03 | 0.843 | 0.907 | 0.9 | 0.896 | 0.872 | 0.913
COR-L23 | 0.208 | 0.213 | 0.195 | 0.21 | 0.136 | 0.982 | 0.912 | 1.13 | 1.04 | 0.973 | 0.183 | 0.201 | 0.196 | 0.197 | 0.203 | 0.209 | 0.169 | 0.202
COR-L 105 | 0.361 | 0.313 | 0.303 | 0.295 | 0.336 | 1.15 | 1.26 | 1.14 | 0.985 | 1.04 | 1.14 | 1.08 | 0.925 | 1.19 | 1.21 | 1.09 | 1.23 | 1.01
LK-2 | 0.159 | 0.185 | 0.183 | 0.188 | 0.171 | 0.93 | 1.35 | 1.35 | 1.37 | 1.39 | 0.327 | 0.215 | 0.224 | 0.295 | 0.207 | 0.294 | 0.256 | 0.217
201T | 0.943 | 0.958 | 1.04 | 0.924 | 0.928 | 1.12 | 1.2 | 1.17 | 1.1 | 1.15 | 0.315 | 0.349 | 0.318 | 0.321 | 0.32 | 0.326 | 0.301 | 0.311
NCI-H596 | 1 | 0.911 | 1.02 | 0.925 | 0.903 | 0.956 | 0.796 | 0.724 | 0.9 | 0.885 | 0.484 | 0.507 | 0.461 | 0.521 | 0.455 | 0.548 | 0.494 | 0.441
H3255 | 0.657 | 0.511 | 0.749 | 0.686 | 0.713 | 0.823 | 1.04 | 0.858 | 1.11 | 0.89 | 0.572 | 0.568 | 0.58 | 0.561 | 0.49 | 0.552 | 0.565 | 0.601
NCI-H647 | 0.286 | 0.314 | 0.425 | 0.233 | 0.254 | 1.23 | 1.32 | 1.26 | 1.12 | 1.12 | 0.186 | 0.192 | 0.178 | 0.172 | 0.182 | 0.205 | 0.203 | 0.202
NCI-H2023 | 0.326 | 0.394 | 0.441 | 0.387 | 0.321 | 1.01 | 0.905 | 0.947 | 0.731 | 0.859 | 0.253 | 0.283 | 0.221 | 0.226 | 0.249 | 0.256 | 0.224 | 0.239
NCI-H23 | 0.332 | 0.453 | 0.314 | 0.358 | 0.369 | 1.05 | 0.998 | 1 | 0.975 | 0.987 | 0.621 | 0.594 | 0.367 | 0.656 | 0.707 | 0.56 | 0.63 | 0.665
NCI-H1944 | 0.239 | 0.264 | 0.264 | 0.26 | 0.27 | 0.795 | 0.841 | 0.827 | 0.888 | 1.01 | 0.633 | 0.757 | 0.665 | 0.609 | 0.731 | 0.642 | 0.553 | 0.575
NCI-H1793 | 0.343 | 0.346 | 0.368 | 0.393 | 0.324 | 0.622 | 0.661 | 0.562 | 0.6 | 0.92 | 0.73 | 0.902 | 0.609 | 0.907 | 1.01 | 0.827 | 0.949 | 0.891
NCI-H520 | 0.492 | 0.425 | 0.402 | 0.424 | 0.398 | 0.852 | 0.831 | 0.677 | 0.725 | 0.917 | 0.765 | 0.667 | 0.375 | 0.676 | 0.716 | 0.761 | 0.661 | 0.623
NCI-H460 | 0.397 | 0.591 | 0.485 | 0.47 | 0.394 | 1.04 | 1.06 | 1.09 | 0.981 | 1.03 | 0.058 | 0.0629 | 0.0654 | 0.0659 | 0.064 | 0.0588 | 0.0727 | 0.0577
EKVX | 0.443 | 0.374 | 0.431 | 0.39 | 0.386 | 0.905 | 1.05 | 0.602 | 0.77 | 0.626 | 0.35 | 0.399 | 0.378 | 0.38 | 0.358 | 0.408 | 0.439 | 0.403
NCI-H358 | 0.0971 | 0.102 | 0.12 | 0.0969 | 0.0967 | 0.755 | 0.721 | 0.747 | 0.683 | 0.816 | 0.175 | 0.141 | 0.114 | 0.168 | 0.164 | 0.179 | 0.193 | 0.185
EPLC-272H | 0.299 | 0.225 | 0.365 | 0.313 | 0.234 | 0.686 | 0.688 | 0.752 | 0.581 | 0.79 | 0.433 | 0.386 | 0.176 | 0.275 | 0.395 | 0.308 | 0.356 | 0.315
